We go through ten molecules from BindingDB's records for doi:10.1021/jm00099a026 (Smithkline Beecham Pharmaceuticals, 1992).

A short description of the experiment: Inhibition of ADP-induced platelet aggregation in canine platelet-rich plasma.
The term IC50 denotes the concentration needed to halve the response being measured. A higher IC50 goes with a need for much substance. `CC(=O)N[C@@H](CS)C(=O)N[C@@H](CCCN=C(N)N)C(=O)NCC(=O)N[C@@H](CC(=O)O)C(=O)N[C@@H](C(N)=O)C(C)(C)S`: the IC50 was found to be 4.12 µM.

In the case of `N=C(N)NCCC[C@@H]1NC(=O)[C@@H]2CCCN2C(=O)CNC(=O)[C@H]2CCCN2C(=O)[C@H](CC(=O)O)NC(=O)CNC1=O`, the IC50 is 76.6 µM.

On to `N=C(N)NCCC[C@@H]1NC(=O)[C@@H]2CCCN2C(=O)[C@@H](Cc2ccccc2)NC(=O)CNC(=O)[C@H](CC(=O)O)NC(=O)CNC1=O`, for which the IC50 turned out to be 17.7 µM.

`N=C(N)NCCC[C@@H]1NC(=O)[C@@H]2CCCN2C(=O)[C@H]2CCCN2C(=O)CNC(=O)[C@H](CC(=O)O)NC(=O)CNC1=O` came in with an IC50 of 5.26 µM.

`CC(=O)N[C@@H](CS)C(=O)N(C)[C@H](CCCN=C(N)N)C(=O)NCC(=O)N[C@@H](CC(=O)O)C(=O)N[C@H](C(N)=O)C(C)(C)S` had an IC50 of 1.79 µM.

Regarding `CN(C(=O)c1ccccc1S)[C@@H](CCCNC(=N)N)C(=O)NCC(=O)N[C@@H](CC(=O)O)C(=O)Nc1ccccc1S`, the IC50 was 0.09 µM.

With `CC(=O)N[C@@H](CS)C(=O)N[C@@H](CCCNC(=N)N)C(=O)NCC(=O)N[C@@H](CC(=O)O)C(=O)N[C@H](C(N)=O)C(C)(C)S`, inhibition was half-maximal at 20.3 µM (IC50).

In turn, `CC(=O)N[C@@H](CS)C(=O)N(C)[C@@H](CCCN=C(N)N)C(=O)NCC(=O)N[C@@H](CC(=O)O)C(=O)N[C@H](C(N)=O)C(C)(C)S` gave an IC50 of 0.355 µM.

`C[C@H](NC(=O)[C@H](CS)NC(=O)[C@@H]1CCCN1C(=O)[C@H](CO)NC(=O)[C@H](CC(=O)O)NC(=O)CNC(=O)[C@H](CCCNC(=N)N)NC(=O)CNC(=O)[C@@H](NC(=O)CN)C(C)(C)S)C(=O)O` came in with an IC50 of 10.1 µM.

The molecule `CC(=O)N[C@@H](CS)C(=O)N[C@H](CCCN=C(N)N)C(=O)NCC(=O)N[C@@H](CC(=O)O)C(=O)N[C@H](C(N)=O)C(C)(C)S` came in with an IC50 of 4.1 µM.
